Experimental data as given in ChEMBL document CHEMBL5260820, “Discovery of novel steroidal histamine H3 receptor antagonists/inverse agonists” (Bioorg Med Chem Lett, 2017).
≈ marks a conversion by molar mass, not a printed value.

Assays:
Rattus norvegicus [1] = species: Rattus norvegicus; assay: Displacement of [3H]quinuclidinyl benzilate from Wistar rat cortex muscarinic AChR at 1 uM by liquid scintillation counting analysis relative to control; type: tissue-based
Histamine H3 receptor [2] = biological target: T1, Histamine H3 receptor (Homo sapiens, UniProt Q9Y5N1); assay: Displacement of N-alpha-[methyl-3H]-methylhistamine dihydrochloride from recombinant human histamine H3 receptor expressed in CHO-K1 cells assessed as inhibition constant incubated for 30 mins by liquid scintillation analysis; type: cell-based
Histamine H3 receptor [3] = biological target: Histamine H3 receptor (Rattus norvegicus, UniProt Q9QYN8); assay: Displacement of N-alpha-[methyl-3H]-methylhistamine dihydrochloride from Sprague-Dawley rat brain membrane histamine H3 receptor assessed as inhibition constant incubated for 30 mins by liquid scintillation counting analysis; type: cell membranes
Histamine H3 receptor [4] = biological target: T1, Histamine H3 receptor; assay: Inverse agonist activity at recombinant human histamine H3 receptor expressed in CHO-K1 cells preincubated for 10 mins followed by [35S]GTPgammaS addition and measured after 60 mins by TopCount NXT based scintillation analysis; type: cell-based
Histamine H3 receptor [5] = biological target: T1, Histamine H3 receptor; assay: Antagonist activity at human histamine H3 receptor expressed in CHO-K1 cells assessed as inhibition of imetit-stimulation ERK1/2 phosphorylation by ELISA analysis; type: cell-based
Histamine H3 receptor [6] = biological target: T1, Histamine H3 receptor; assay: Inverse agonist activity at recombinant human histamine H3 receptor expressed in CHO-K1 cells assessed as maximal efficacy preincubated for 10 mins followed by [35S]GTPgammaS addition and measured after 60 mins by TopCount NXT based scintillation analysis relative to control; type: cell-based; conditions: time 70.0 min
[7] = Volume of distribution in Wistar rat at 3 mg/kg, po or iv measured upto 5 hrs by HPLC-MS/MS analysis; type: ADME, organism-based; conditions: in vivo
[8] = Bioavailability in Wistar rat at 3 mg/kg, po or iv measured upto 5 hrs by HPLC-MS/MS analysis; type: ADME, organism-based; conditions: in vivo
[9] = Displacement of [3H]quinuclidinyl benzilate from Wistar rat cortex muscarinic AChR assessed as inhibition constant by liquid scintillation counting analysis; type: tissue-based
Rattus norvegicus [10] = assay: Anti-dipsogenic activity in imetit-induced Wistar rat model assessed as inhibition of imetit-induced water intake at 10 mg/kg, po preadministered for 30 mins followed by imetit stimulation and measured after 40 mins relative to control; type: functional; conditions: 1.167 h, time 70 min
[11] = Selectivity index, ratio of Ki for displacement of [3H]quinuclidinyl benzilate from Wistar rat cortex muscarinic AChR to Ki for N-alpha-[methyl-3H]-methylhistamine dihydrochloride from Sprague-Dawley rat brain membrane histamine H3 receptor
[12] = Terminal half-life in Wistar rat plasma at 3 mg/kg, po or iv measured upto 5 hrs by HPLC-MS/MS analysis; type: ADME, organism-based; conditions: read-out: beta t1/2 (converted)
[13] = Tmax in Wistar rat at 3 mg/kg, po or iv measured upto 5 hrs by HPLC-MS/MS analysis; type: ADME, organism-based; conditions: in vivo
[14] = Apparent permeability in vinblastine treated human CaCo-2 cells; type: ADME, cell-based
Rattus norvegicus [15] = species: Rattus norvegicus; assay: Displacement of [3H]quinuclidinyl benzilate from Wistar rat cortex muscarinic AChR at 3 uM by liquid scintillation counting analysis relative to control; type: tissue-based
[16] = Ratio AUC in Wistar rat brain to plasma at 3 mg/kg, po or iv measured upto 5 hrs by HPLC-MS/MS analysis; type: ADME, organism-based; conditions: brain and plasma, read-out: Ratio AUC
[17] = Stability in rat microsomes; type: ADME, Microsome
[18] = Thermodynamic […] of the compound measured after 24 hrs by HPLC-UV-MS analysis; type: physicochemical; conditions: read-out: Therm_solubility
[19] = Terminal half-life in Wistar rat brain at 3 mg/kg, po or iv measured upto 5 hrs by HPLC-MS/MS analysis; type: ADME, organism-based; conditions: read-out: beta t1/2 (converted)
[20] = Stability in human microsomes; type: ADME, Microsome
[21] = biological target: Histamine H1 receptor (Homo sapiens) (UniProt P35367); assay: Displacement of [3H]pyrilamine from recombinant human histamine H1 receptor expressed in CHO-K1 cell membrane at 1 uM incubated for 30 mins by liquid scintillation counter analysis relative to control; type: cell membranes
[22] = biological target: Histamine H2 receptor (Homo sapiens) (UniProt P25021); assay: Displacement of [3H]tiotidine from recombinant human histamine H2 receptor expressed in CHO-K1 cell membrane at 1 uM incubated for 45 mins by Scintillation counter analysis relative to control; type: cell membranes
[23] = biological target: Histamine H4 receptor (Homo sapiens) (UniProt Q9H3N8); assay: Displacement of [3H]histamine from human histamine H4 receptors expressed in CHO-K1 cell membrane at 1 uM incubated for 30 mins by scintillation counter analysis relative to control; type: cell membranes
[24] = biological target: Estrogen receptor beta (Homo sapiens) (UniProt Q92731); assay: Binding affinity to Estrogen receptor beta (unknown origin) at 1 uM by displacement assay relative to control
[25] = biological target: T2, Estrogen receptor (Homo sapiens) (UniProt P03372); assay: Binding affinity to Estrogen receptor alpha (unknown origin) at 1 uM by displacement assay relative to control
T2 sequence (whole entry): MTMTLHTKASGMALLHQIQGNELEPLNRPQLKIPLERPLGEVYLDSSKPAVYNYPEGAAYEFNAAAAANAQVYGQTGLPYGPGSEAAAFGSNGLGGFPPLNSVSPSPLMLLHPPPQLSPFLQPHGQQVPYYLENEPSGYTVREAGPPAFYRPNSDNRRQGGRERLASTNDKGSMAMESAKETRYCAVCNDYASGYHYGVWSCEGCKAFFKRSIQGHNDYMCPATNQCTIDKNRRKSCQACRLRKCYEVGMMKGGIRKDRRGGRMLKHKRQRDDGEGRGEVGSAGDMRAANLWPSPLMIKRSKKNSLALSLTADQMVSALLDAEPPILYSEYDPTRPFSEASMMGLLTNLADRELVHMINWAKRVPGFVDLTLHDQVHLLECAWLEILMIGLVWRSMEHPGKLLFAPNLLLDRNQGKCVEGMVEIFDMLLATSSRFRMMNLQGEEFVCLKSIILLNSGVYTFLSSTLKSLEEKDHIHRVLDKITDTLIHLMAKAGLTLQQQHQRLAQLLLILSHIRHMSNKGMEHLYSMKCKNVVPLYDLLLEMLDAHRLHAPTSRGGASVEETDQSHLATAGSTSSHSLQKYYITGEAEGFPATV

T1 sequence (Q9Y5N1 whole entry): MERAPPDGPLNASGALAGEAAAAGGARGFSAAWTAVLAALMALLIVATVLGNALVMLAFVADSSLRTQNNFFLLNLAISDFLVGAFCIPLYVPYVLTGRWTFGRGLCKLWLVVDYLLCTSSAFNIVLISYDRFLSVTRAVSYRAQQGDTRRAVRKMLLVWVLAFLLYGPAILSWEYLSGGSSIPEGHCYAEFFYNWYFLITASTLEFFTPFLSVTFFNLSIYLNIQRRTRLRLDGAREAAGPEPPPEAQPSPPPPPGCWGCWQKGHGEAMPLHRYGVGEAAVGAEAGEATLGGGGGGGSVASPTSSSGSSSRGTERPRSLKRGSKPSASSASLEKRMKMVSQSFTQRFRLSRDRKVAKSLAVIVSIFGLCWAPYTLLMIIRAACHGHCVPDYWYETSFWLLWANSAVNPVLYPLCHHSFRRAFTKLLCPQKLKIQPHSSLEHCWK
Chain of Histamine H3 receptor (Rattus norvegicus, UniProt Q9QYN8) (Q9QYN8 whole entry): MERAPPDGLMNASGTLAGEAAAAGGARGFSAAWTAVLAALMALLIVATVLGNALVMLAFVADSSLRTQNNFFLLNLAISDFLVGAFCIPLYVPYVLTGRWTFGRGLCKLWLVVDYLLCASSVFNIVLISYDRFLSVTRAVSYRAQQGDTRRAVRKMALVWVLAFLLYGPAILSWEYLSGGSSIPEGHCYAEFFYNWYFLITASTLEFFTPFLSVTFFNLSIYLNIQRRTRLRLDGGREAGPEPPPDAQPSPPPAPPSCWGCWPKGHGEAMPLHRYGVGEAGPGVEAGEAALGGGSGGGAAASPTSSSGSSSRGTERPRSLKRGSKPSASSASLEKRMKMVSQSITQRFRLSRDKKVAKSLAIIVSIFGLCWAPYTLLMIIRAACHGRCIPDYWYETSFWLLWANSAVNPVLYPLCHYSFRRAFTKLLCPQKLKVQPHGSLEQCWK
Chain of Estrogen receptor beta (Homo sapiens) (Q92731 whole entry): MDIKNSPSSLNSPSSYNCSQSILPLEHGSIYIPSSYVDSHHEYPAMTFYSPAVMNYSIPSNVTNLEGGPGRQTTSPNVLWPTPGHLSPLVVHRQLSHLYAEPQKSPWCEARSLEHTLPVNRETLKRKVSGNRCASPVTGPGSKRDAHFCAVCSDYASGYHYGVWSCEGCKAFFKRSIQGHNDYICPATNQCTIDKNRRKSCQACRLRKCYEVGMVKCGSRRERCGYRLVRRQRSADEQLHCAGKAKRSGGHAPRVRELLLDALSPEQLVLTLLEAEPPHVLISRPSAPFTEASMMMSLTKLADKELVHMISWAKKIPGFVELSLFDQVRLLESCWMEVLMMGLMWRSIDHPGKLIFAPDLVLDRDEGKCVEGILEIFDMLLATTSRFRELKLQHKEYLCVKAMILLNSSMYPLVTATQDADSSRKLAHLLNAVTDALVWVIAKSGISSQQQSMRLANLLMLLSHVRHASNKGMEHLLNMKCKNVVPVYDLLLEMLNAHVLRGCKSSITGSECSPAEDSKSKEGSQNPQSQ
Chain of Histamine H1 receptor (Homo sapiens) (P35367 whole entry): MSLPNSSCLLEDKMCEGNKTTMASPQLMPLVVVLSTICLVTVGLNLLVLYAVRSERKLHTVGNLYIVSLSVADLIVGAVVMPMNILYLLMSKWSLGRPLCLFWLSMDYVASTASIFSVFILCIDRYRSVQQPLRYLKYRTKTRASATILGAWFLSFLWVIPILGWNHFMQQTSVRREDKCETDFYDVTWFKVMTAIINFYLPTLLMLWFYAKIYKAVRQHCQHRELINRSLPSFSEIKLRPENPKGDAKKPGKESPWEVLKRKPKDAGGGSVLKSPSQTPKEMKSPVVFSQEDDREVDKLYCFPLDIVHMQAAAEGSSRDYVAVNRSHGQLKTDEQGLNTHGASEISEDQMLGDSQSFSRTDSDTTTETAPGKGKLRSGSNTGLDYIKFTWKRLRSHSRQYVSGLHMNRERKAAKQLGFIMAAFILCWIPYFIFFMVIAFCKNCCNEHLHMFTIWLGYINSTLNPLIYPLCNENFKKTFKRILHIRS
Chain of Histamine H2 receptor (Homo sapiens) (P25021 whole entry): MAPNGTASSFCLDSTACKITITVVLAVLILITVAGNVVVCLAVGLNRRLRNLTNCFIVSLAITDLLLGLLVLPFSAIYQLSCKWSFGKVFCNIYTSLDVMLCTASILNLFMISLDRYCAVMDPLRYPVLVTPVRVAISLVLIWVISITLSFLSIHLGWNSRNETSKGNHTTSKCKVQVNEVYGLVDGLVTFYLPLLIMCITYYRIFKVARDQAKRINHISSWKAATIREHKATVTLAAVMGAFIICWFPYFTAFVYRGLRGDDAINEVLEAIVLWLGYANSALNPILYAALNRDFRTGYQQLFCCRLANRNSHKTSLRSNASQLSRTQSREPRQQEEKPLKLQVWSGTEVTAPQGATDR
Chain of Histamine H4 receptor (Homo sapiens) (Q9H3N8 whole entry): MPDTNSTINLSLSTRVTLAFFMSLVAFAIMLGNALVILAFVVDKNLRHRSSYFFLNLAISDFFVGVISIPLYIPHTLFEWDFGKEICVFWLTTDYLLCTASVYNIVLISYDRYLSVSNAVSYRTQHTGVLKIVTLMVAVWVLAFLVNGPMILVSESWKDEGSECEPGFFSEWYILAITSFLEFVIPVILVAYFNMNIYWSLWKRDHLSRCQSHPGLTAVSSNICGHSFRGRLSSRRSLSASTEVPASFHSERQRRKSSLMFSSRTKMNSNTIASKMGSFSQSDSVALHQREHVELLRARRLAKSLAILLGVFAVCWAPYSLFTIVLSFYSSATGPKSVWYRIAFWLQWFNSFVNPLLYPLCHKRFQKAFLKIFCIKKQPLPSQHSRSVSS

For C[C@]12CC[C@@H]3c4ccc(OCCCN5CCC(O)CC5)cc4CC[C@H]3[C@@H]1CC[C@@H]2N1CCCC1, the Activity (Rattus norvegicus [1]) was 55%, the Ki (Histamine H3 receptor [2]) was 5 nM and the Ki (Histamine H3 receptor [3]) was 24.3 nM. For the same compound, the EC50 (Histamine H3 receptor [4]) was 4.4 nM and the IC50 (Histamine H3 receptor [5]) was 4.2 nM.
C[C@]12CC[C@@H]3c4ccc(OCCN5CCCC5)cc4CC[C@H]3[C@@H]1CC[C@@H]2N1CCCC1 gave an Activity (Rattus norvegicus [1]) of 69%, a Ki (Histamine H3 receptor [2]) of 1.9 nM and a Ki (Histamine H3 receptor [3]) of 23.1 nM. It also gave an EC50 (Histamine H3 receptor [4]) of 0.3 nM and an IC50 (Histamine H3 receptor [5]) of 29 nM.
Work on CC[C@]12CC[C@@H]3c4ccc(OCCCN5CCCC5)cc4CC[C@H]3[C@@H]1CC[C@@H]2N1CCCC1 yielded an Activity (Rattus norvegicus [1]) of 69%, a Ki (Histamine H3 receptor [2]) of 0.8 nM and a Ki (Histamine H3 receptor [3]) of 16.6 nM. It also gave an EC50 (Histamine H3 receptor [4]) of 0.9 nM and an IC50 (Histamine H3 receptor [5]) of 16 nM.
For C[C@]12CC[C@@H]3c4ccc(OCc5ccccc5)cc4CC[C@H]3[C@@H]1CC[C@@H]2N1CCCC1, the Activity (Rattus norvegicus [1]) was 5% and the Ki (Histamine H3 receptor [2]) was 216 nM.
With C[C@]12CC[C@@H]3c4ccc(OCc5ccccn5)cc4CC[C@H]3[C@@H]1CC[C@@H]2N1CCCC1 the Emax (Histamine H3 receptor [6]) was 23%, the Vd [7] was 19.7 L/kg and the bioavailability [8] was 25.4%. For the same compound, the Ki [9] was 1080 nM, the inhibition in vivo at 10 mg/kg (Rattus norvegicus [10]) was 122% and the Ki (Histamine H3 receptor [2]) was 2.2 nM. The Ratio Ki [11] was 141, the half-life [12] was 1.5 h and the Ki (Histamine H3 receptor [3]) was 7.6 nM. For the same compound, the EC50 (Histamine H3 receptor [4]) was 1 nM, the Tmax [13] was 1 h and the Papp [14] was 10.1 ×10⁻⁶ cm/s. For the same compound, the Activity (Rattus norvegicus [15]) was 51%, the Kp at 5 h [16] was 41.1 and the IC50 (Histamine H3 receptor [5]) was 50.8 nM. It also gave a Stability [17] of 67%, a solubility thermodynamic at 24 h [18] of 93 µM (≈ 38.7 µg/mL) and a half-life [19] of 1.5 h. For the same compound, the Stability [20] was 93%.
With C[C@@H]1Cc2cc(OCCCN3CCCC3)ccc2[C@H]2CC[C@]3(C)[C@@H](N4CCCC4)CC[C@H]3[C@H]12 the Activity (Rattus norvegicus [1]) was 72%, the Ki (Histamine H3 receptor [2]) was 1.2 nM and the Ki (Histamine H3 receptor [3]) was 18.3 nM. For the same compound, the EC50 (Histamine H3 receptor [4]) was 0.2 nM and the IC50 (Histamine H3 receptor [5]) was 12 nM.
Compound C[C@]12CC[C@@H]3c4ccc(OCCCN5CCCC5)cc4CC[C@H]3[C@@H]1CC[C@@H]2N1CCCC1 has an Activity [21] of 64%, an Activity [22] of 44% and a Ki [9] of 110 nM. For the same compound, the Activity (Rattus norvegicus [1]) was 74%, the Ki (Histamine H3 receptor [2]) was 0.6 nM and the Activity [23] was 36%. It also gave a Ki (Histamine H3 receptor [3]) of 2.4 nM, an Activity [24] of 26% and an EC50 (Histamine H3 receptor [4]) of 0.1 nM. For the same compound, the IC50 (Histamine H3 receptor [5]) was 6.1 nM and the Activity [25] was 19%.
With CC(=O)C1CCN(CCCOc2ccc3c(c2)CC[C@@H]2[C@@H]3CC[C@]3(C)[C@@H](N4CCCC4)CC[C@@H]23)CC1 the Ki (Histamine H3 receptor [2]) was 2.7 nM, the Ki (Histamine H3 receptor [3]) was 7.5 nM and the EC50 (Histamine H3 receptor [4]) was 1.4 nM. For the same compound, the IC50 (Histamine H3 receptor [5]) was 14.2 nM.
CC1CCCN1CCCOc1ccc2c(c1)CC[C@@H]1[C@@H]2CC[C@]2(C)[C@@H](N3CCCC3)CC[C@@H]12 (mixture of isomers) gave a Ki [9] of 224 nM, an Activity (Rattus norvegicus [1]) of 69% and a Ki (Histamine H3 receptor [2]) of 0.5 nM. It also gave a Ratio Ki [11] of 62, a Ki (Histamine H3 receptor [3]) of 3.6 nM and an EC50 (Histamine H3 receptor [4]) of 0.4 nM. For the same compound, the IC50 (Histamine H3 receptor [5]) was 12.1 nM.
C[C@]12CC[C@@H]3c4ccc(OCCCN5CCNC(=O)C5)cc4CC[C@H]3[C@@H]1CC[C@@H]2N1CCCC1 showed an Activity (Rattus norvegicus [1]) of 73%, a Ki (Histamine H3 receptor [2]) of 0.6 nM and a Ki (Histamine H3 receptor [3]) of 3.2 nM. It also gave an EC50 (Histamine H3 receptor [4]) of 0.6 nM and an IC50 (Histamine H3 receptor [5]) of 17.4 nM.
For C[C@]12CC[C@@H]3c4ccc(OCCCN5CCC(O)C5)cc4CC[C@H]3[C@@H]1CC[C@@H]2N1CCCC1 (stereo partly specified), the Activity (Rattus norvegicus [1]) was 64%, the Ki (Histamine H3 receptor [2]) was 5.2 nM and the Ki (Histamine H3 receptor [3]) was 16.8 nM. For the same compound, the EC50 (Histamine H3 receptor [4]) was 1.2 nM and the IC50 (Histamine H3 receptor [5]) was 3.9 nM.
For C[C@]12CC[C@@H]3c4ccc(OCc5ccncc5)cc4CC[C@H]3[C@@H]1CC[C@@H]2N1CCCC1, the Activity (Rattus norvegicus [1]) was 51%, the Ki (Histamine H3 receptor [2]) was 0.87 nM and the Ki (Histamine H3 receptor [3]) was 7.3 nM.
